Results: article PMC3781034, “A Small-Animal Pharmacokinetic/Pharmacodynamic PET Study of Central Serotonin 1A Receptor Occupancy by a Potential Therapeutic Agent for Overactive Bladder” (PLoS ONE, 2013)
Where two headings read alike, the source gives them in different places.

What was measured:
PK study in rats (oral) = assay type: in vivo; conditions: Sprague-Dawley, rat, plasma, 1 mg/kg oral; for AUC(0-t): read-out: AUC0-8hr
Method: E2110 was administered orally to male and female SD rats, (4 animals/sex) at a dose of 1 mg/kg. Blood samples were collected from the jugular veins by heparinized syringes at 0.25, 0.5, 1, 2, 4, 6, and 8 hours after dosing.
Concentrations of E2110 were determined in plasma or PBS by liquid chromatography - tandem mass spectrometry. Samples (5 µL) were injected into an L-column ODS (35 × 2.1 mm; 5 µM, Chemical Evaluation and Research Institute, Tokyo, Japan) with a flow rate of 0.6 mL/min. We used 0.1% formic acid in water and acetonitrile as mobile phase A and B, respectively. The gradient elution started with a gradient from 0% to 100% mobile phase B for 2 min, then 1 min of 100% B, followed by a gradient of 100% to 0% for 0.01 min at the end, at a flow rate of 0.6 ml/min. The mass spectrometer (Quattro Ultima-Pt; Micromass, Waters Ltd., Manchester, UK) was operated in a positive ion multiple reaction monitoring mode. E2110 was monitored using mass transitions of 490.4/459.2. Tamsulosin was used as an internal standard, and was monitored using a mass transition of 409.3/200.0. The lower limit of quantification of E2110 in plasma was 0.5 ng/mL.

micturition interval = experiment: Superior colliculus lesion (SCL) model, cystometry; assay type: in vivo, female SD rats
Method: For lesioning of the brain to stimulate the micturition reflex, anesthesia was induced in female SD rats with 4% halothane and an N2O/O2 (2:1) gas mixture, it was maintained with 2% halothane, and each animal was mounted onto a stereotaxic apparatus. […] Catheter implantations and cystometric investigations were performed with the same methodologies as in the 5-HT1A receptor agonist-induced model. E2110 (0.1, 0.3 or 1 mg/kg) or vehicle was administered to four groups of eight conscious rats orally. The three micturition intervals were obtained and drug-induced changes in the micturition intervals were evaluated. In this assay, the post-administration micturition interval was defined as the average of the micturition intervals over an observation period between 0.5 and 1 hour after administration.
Data are expressed as mean ± standard error of mean (S.E.M). In the pharmacological study, the statistical significance of differences between the vehicle- and E2110-treated groups was tested using one-way analysis of variance (ANOVA) followed by Dunnett’s multiple comparison test. A probability (p) value of <0.05 (two-sided) was considered statistically significant. All statistical analyses were performed using the SAS software package version 8.1 or 8.2 (SAS Institute Japan Ltd., Tokyo, Japan).

5-HT1A receptors = experiment: [35S]guanosine-5'-O-(3-thio)-triphosphate binding studies; assay type: biochemical; conditions: stated in introduction, no data shown

SMILES: CNC(=O)c1ccc2ccn(C3CCN(CCc4c(OC)ccc5c4OC(C)(C)CC5=O)CC3)c2c1.O=C(O)/C=C/C(=O)O [E2110, 1-{1-[2-(7-Methoxy-2,2-dimethyl-4-oxochroman-8-yl)ethyl]piperidine-4-yl}-N-methyl-1H-indole-6-carboxamide fumarate]
- Cmax (PK study in rats (oral); Female SD): 126 ng/mL
- Tmax (PK study in rats (oral); Female SD): 1 h
- half-life (PK study in rats (oral); Female SD): 2.6 h
- AUC(0-t) (PK study in rats (oral); Female SD): 488 ng·h/mL
- Cmax (PK study in rats (oral); Male SD): 48.1 ng/mL
- Tmax (PK study in rats (oral); Male SD): 0.5 h
- half-life (PK study in rats (oral); Male SD): 1.5 h
- AUC(0-t) (PK study in rats (oral); Male SD): 71.8 ng·h/mL
- minimum dose exerting overt therapeutic effects on the micturition reflex (micturition interval; SCL model, oral): 0.3 mg/kg
- effect on micturition interval (micturition interval; oral 0.3-1 mg/kg, SCL female SD rats, 0.5-1 hour after administration): significantly (p < 0.05) prolonged the micturition intervals
- functional character at 5-HT1A receptors (5-HT1A receptors): full antagonist
